Values quoted from earlier work in patent US5879680A, “Cloned DNA for synthesizing unique glucocerebrosidase” (The United States of America as represented by the …, priority 1995, dated 1999).

Target: human placental glucocerebrosidase (Homo sapiens, UniProt P04062)
Details: placental enzyme, reported by Basu et al, J.B.C. 259:1714, 1984

human placental glucocerebrosidase, sequence (P04062 40-536): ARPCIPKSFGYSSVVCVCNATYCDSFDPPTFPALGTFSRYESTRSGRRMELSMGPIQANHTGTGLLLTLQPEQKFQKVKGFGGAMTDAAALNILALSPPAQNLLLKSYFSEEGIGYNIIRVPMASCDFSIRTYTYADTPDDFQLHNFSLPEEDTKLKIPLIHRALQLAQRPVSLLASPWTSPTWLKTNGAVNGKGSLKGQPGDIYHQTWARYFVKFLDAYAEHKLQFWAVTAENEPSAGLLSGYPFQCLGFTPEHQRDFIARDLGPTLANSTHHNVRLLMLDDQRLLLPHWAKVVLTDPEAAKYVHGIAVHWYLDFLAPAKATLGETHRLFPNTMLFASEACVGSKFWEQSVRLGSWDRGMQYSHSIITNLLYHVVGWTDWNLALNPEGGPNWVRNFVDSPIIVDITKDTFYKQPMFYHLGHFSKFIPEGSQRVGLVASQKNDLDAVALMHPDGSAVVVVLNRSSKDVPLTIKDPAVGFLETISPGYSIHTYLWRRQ

Cc1cc(=O)oc2cc(O[C@@H]3O[C@H](CO)[C@@H](O)[C@H](O)[C@H]3O)ccc12 [4MUGP, 4-methylumbellifery-β-D-glucopyranoside]
Km: 8 mM
